Results published in publication PMC6216040, “Repurposing of an old drug: In vitro and in vivo efficacies of buparvaquone against Echinococcus multilocularis” (International Journal for Parasitology: Drugs and Drug …, 2018).

System: E. multilocularis metacestodes
Assay: PGI-assay: drug-induced damage on in vitro cultured metacestodes (Pathogen Box screening cascade and EC50)
Assay type: cell-based, Echinococcus multilocularis
Conditions: for PGI release, % of Tx-100 control, average, 5d / PGI release, % of the Tx-100 control, 5d: 5 days of incubation; for PGI release, % of Tx-100 control, average, 12d / PGI release, % of the Tx-100 control, 12d: 12 days of incubation; for PGI release, % of the Tx-100 control, 5d / PGI release, % of the Tx-100 control, 12d: 10 µM, singlets
[1] = confirmatory screening at 10 µM in triplicates, values as % of Tx-100 control

| Compound | PGI release, % of the Tx-100 control, 5d [%] | PGI release, % of the Tx-100 control, 12d [%] | further results |
| --- | --- | --- | --- |
| Cc1ccc(NC(=O)c2nc[nH]c2C(=O)Nc2nc3ccccc3[nH]2)c(C)c1 [MMV011903] | 41.66 | 94.00 | PGI release, % of Tx-100 control, average, 5d (1 µM, triplicates): -2.96%; PGI release, % of Tx-100 control, average, 12d (1 µM, triplicates): -9.52%; activity in the screen at 10 μM (confirmed in triplicates, >20% relative PGI release) (10 μM, 5 and 12 days): active; PGI release, % of Tx-100 control, average, 5d [1]: 4.49%; PGI release, % of Tx-100 control, average, 12d [1]: 34.00% |
| Cc1nc2ccccn2c1C(=O)NCc1ccc(Cl)cc1 [MMV012074] | 0.39 | -0.51 | – |
| Cc1cc(Nc2ccncc2)n2nc(C)c(-c3ccccc3Cl)c2n1 [MMV016136] | 0.97 | 2.16 | – |
| Cc1ccc(-c2cc(C(=O)Nc3cccnc3)c3cc(Br)ccc3n2)cc1 [MMV016838] | -0.19 | -0.0545 | – |
| Cc1cc(C)n2nc(C(=O)Nc3cc(C(F)(F)F)ccc3N3CCOCC3)nc2n1 [MMV019087] | -0.91 | -0.17 | – |
| Cc1ccc2c(c1C)NC(=O)C21NN=C(c2ccccc2)S1 (centres unmarked) [MMV019189] | 4.07 | -1.23 | – |
| COc1ccc(C2CC(c3cccs3)=NN2C(=O)c2ccco2)cc1OC (centres unmarked) [MMV019234] | 0.82 | 6.10 | – |
| CCC(NC(=O)c1ccccc1NC(=O)c1ccc(C)cc1)C(=O)OC (centres unmarked) [MMV019551] | -0.56 | 0.21 | – |
| CCN(CC)S(=O)(=O)c1ccc(Cl)c(C(=O)Nc2ccc3nc(C)sc3c2)c1 [MMV019721] | -0.43 | -1.86 | – |
| Cc1ccc(S(=O)(=O)N2CCN(C(=O)c3cc(-c4ccccc4)n[nH]3)CC2)cc1 [MMV019742] | 0.16 | 0.57 | – |
| CCOc1ccccc1C(=O)Nc1cccc(-c2nc3ncccn3c2C)c1 [MMV019790] | -1.05 | 53.36 | PGI release, % of Tx-100 control, average, 5d [1]: -1.68%; PGI release, % of Tx-100 control, average, 12d [1]: -2.24% |
| Cc1ccc2cc(C3NC(=O)c4ccccc4N3)c(Cl)nc2c1 (centres unmarked) [MMV019807] | 1.08 | 2.05 | – |
| O=C(Nc1ccnc(-c2cccnc2)n1)c1cc(C(F)(F)F)cc(C(F)(F)F)c1 [MMV019838] | 1.37 | -0.96 | – |
| Cc1nn(C)cc1C(C)Nc1nncc(-c2ccc(C(F)(F)F)cc2)n1 (centres unmarked) [MMV019993] | -0.77 | -1.30 | – |
| COc1cccc(CC(=O)N2CCC(n3c(C)nc4ccc(F)cc43)CC2)c1 [MMV020081] | -1.15 | -0.33 | – |
| CC1CC1C(=O)NC1CCN(CC2(c3ccccc3)CCCCC2)CC1 (centres unmarked) [MMV020120] | -0.34 | -0.45 | – |
| CNC(=O)c1cc(S(=O)(=O)N2CCN(c3ccccn3)CC2)cs1 [MMV020136] | -0.32 | 0.25 | – |
| Cc1cc(C(=O)Nc2ccc(-c3ccccc3)cc2)no1 [MMV020152] | 0.07 | -0.81 | – |
| CC(C)NCC(=O)Nc1cccc(C(=O)Nc2cccc(C(F)(F)F)c2)c1 [MMV020165] | 0.28 | -0.10 | – |
| Cc1ccc(NC(=O)c2cc(S(=O)(=O)NC(C)(C)C)ccc2C)nc1 [MMV020289] | -0.85 | -0.97 | – |
| CC(C(=O)N1CCCC1)N1CCN(S(=O)(=O)c2ccc(C(C)(C)C)cc2)CC1 (centres unmarked) [MMV020291] | -0.20 | -0.67 | – |
| Cc1nnc(NC(=O)c2cn(-c3ccccc3)nc2-c2ccccc2C)o1 [MMV020320] | -1.15 | 2.11 | – |
| COc1ccccc1C(C)NCC(=O)Nc1cc(C(F)(F)F)ccc1Cl (centres unmarked) [MMV020321] | 0.0279 | 2.67 | – |

| Compound | PGI release, % of the Tx-100 control, 5d [%] | PGI release, % of the Tx-100 control, 12d [%] | further results |
| --- | --- | --- | --- |
| CC1CCCN(C(=O)C(C)Nc2cc(Cl)ccc2N2CCOCC2)C1 (centres unmarked) [MMV020388] | -0.77 | -1.83 | – |
| CC(C)C(C(=O)Nc1ccc(S(=O)(=O)N(C)C)cc1)c1ccc(Cl)cc1 (centres unmarked) [MMV020391] | -0.90 | -4.50 | – |
| Cc1ccc(Oc2ccc(NC(=O)CNc3ccccc3N3CCCC3=O)cc2)cc1 [MMV020512] | 0.61 | 1.80 | – |
| COc1ccccc1CNC(=O)c1cc(C2CC2)nc2c1cnn2C(C)C [MMV020517] | -0.60 | -1.00 | – |
| Cc1cc2ccccc2n1CC(=O)N1CC(C(=O)N2CCCCC2)Oc2ccccc21 (centres unmarked) [MMV020520] | -0.40 | -0.48 | – |
| O=C(NC1CC1)c1ccc(N2CCOc3ccc(Cl)cc32)s1 [MMV020537] | 1.89 | 0.98 | – |
| CC(C)C(NC(=O)Cc1cccc2ccccc12)C(=O)Nc1cccc(C#N)c1 (centres unmarked) [MMV020591] | -0.00326 | 0.72 | – |
| Cc1noc(C)c1C(=O)N1CCCC(c2[nH]c3c(C)cccc3c2-c2ccncc2)C1 (centres unmarked) [MMV020623] | -0.37 | -4.10 | – |
| COc1ccc(-c2cncc3ccc(C(=O)NCCCn4ccnc4)nc23)cc1 [MMV020670] | 0.79 | -1.21 | – |
| COc1ccc(Cl)cc1NC(=O)CN(C)C(=O)c1cnn(-c2ccccc2)n1 [MMV020710] | -1.15 | -0.53 | – |
| CC(C)(C)c1cc(C(=O)Nc2cccnc2)cc(C(=O)Nc2cccnc2)c1 [MMV020982] | 1.45 | 12.41 | – |
| CO/C=C(/C(=O)OC)c1ccccc1Oc1cc(Oc2ccccc2C#N)ncn1 [MMV021057, Azoxystrobin] | -0.65 | -0.77 | – |
| Cc1cc(NCC(C)C)c2[nH]nc(-c3ccccc3)c2n1 [MMV021375] | -3.66 | 7.43 | – |
| Cc1cc(NCCc2ccccc2)nc(NC(=N)Nc2ccc(Cl)cc2)n1 [MMV021660] | 5.66 | 4.49 | – |
| CN1CCC(NCc2cccc(-c3ccc(S(=O)(=O)NCc4ccccc4)cc3)c2)CC1 [MMV022029] | 0.43 | 0.82 | – |
| CCN(CC)CCCN1CCN(C(=O)c2cccc(-c3noc(C(F)(F)F)n3)c2)CC1 [MMV022236] | -0.66 | -2.62 | – |
| O=C(Nc1ccc(N2CCNCC2)cc1)c1ccn2ncc(-c3cccc(Cl)c3)c2n1 [MMV022478] | 20.71 | 24.08 | PGI release, % of Tx-100 control, average, 5d [1]: 17.77%; PGI release, % of Tx-100 control, average, 12d [1]: 19.68% |
| c1ccc2c(c1)CN(CC1CC1)CC1(CCN(Cc3c[nH]c4cnccc34)CC1)O2 [MMV023183] | -0.64 | -1.24 | – |
| Cc1nc(-c2cccc(NCc3ccccc3)c2)[nH]c1C [MMV023227] | 0.40 | 0.67 | – |
| Nc1nccc2ccc(-c3ccc4nccn4c3)cc12 [MMV023233] | -0.34 | -0.36 | – |
| Nc1ncc(-c2cn[nH]c2)cc1-c1nc2cc(Cl)cnc2[nH]1 [MMV023370] | -2.33 | -3.72 | – |
| O=C(NC1CCN(c2ccnc3ccccc23)C1)c1cccc(C(F)(F)F)c1 (centres unmarked) [MMV023388] | -0.73 | -1.23 | – |
| NS(=O)(=O)c1cccc(-c2ccc3ncc(N4CCOCC4)nc3c2)c1 [MMV023860] | -0.05 | -0.27 | – |
